Reference: US20250381180A1, “METHODS OF TREATING OR PREVENTING OVERACTIVE BLADDER SYNDROME” (Purdue Pharma L.P., priority 2022, published 2025)
“Also recorded” adds a separate entry of the source.

Columns and labels:
[1] = Urine concentrations in humans after a single oral dose; assay type: in vivo, human; details: see Example 2
conscious SCI rats [2] = assay: Cystometric parameters in conscious spinal cord injury (SCI) rats; assay type: in vivo, rat; details: i.g., Cpd (IA) 30 mg/kg, mirabegron 10 mg/kg
Method: Test substance effects were compared to those of the reference substance, the β3-adrenoceptor agonist mirabegron, marketed for overactive bladder.
• At W-5, spinal cord injury was performed at T8 level as described below. • Over W-5, rats were treated daily with gentamicin. • Over W-5 and W-4, bladder was emptied manually once a day. • From W-5 to W0, animals were weighed once per week. • At D-2 (W0), implantation of catheters was performed under isoflurane anaesthesia as described below. • At D0 (W0), cystometry was performed
Rats were anesthetized with isoflurane (3%). Body temperature was constantly maintained at 37° C. throughout the surgery by placing animals on a thermo-regulated hot plate. A laminectomy was performed and the spinal cord was sectioned with microscissors at T8 level. Care was taken to assure that the section was complete by verifying that a slight retraction of the two segments occurred. Then the muscle was sutured and the skin fixed with staples. The scar was cleaned by Vetedine. For the Sham group, the same surgery was performed without section of the spinal cord.
The urinary bladder was squeezed once a day for 14 days with a gentle massage of the abdomen until restoration of the micturition reflex. In addition, they were administered intramuscularly daily for one week with gentamicin (2 mg/mL, 0.2 ml/rat). Animals were euthanized if they reached humane endpoints: weight loss of greater than 20% of their body weight and/or abnormal behavioral changes indicating presence of pain and distress (prostration, self-mutilation, aggressiveness).
Rats were anesthetized with isoflurane (3%). Body temperature was constantly maintained at 37° C. throughout the surgery by placing animals on a thermo-regulated hot plate. A polyethylene catheter (0.58 and 0.96 mm of inner and outer diameters, respectively) was implanted in the bladder through the dome for intravesical pressure recording. Another catheter (0.58 and 0.96 mm of inner and outer diameters, respectively) was implanted in the stomach for intra-gastric administration. Catheters were exteriorized at the scapular level. After surgery, each rat was housed individually up to the end of the protocol with free access to food and water.
Animals were held under partial restraint in a restraining device. Saline was infused into the bladder at a constant flow rate of 2 or 6 mL/h for sham or SCI rats, respectively. After at least 45 min (3 complete micturition cycles corresponding to basal values), test substances were administered by intra-gastric route. Then, intravesical pressure was recorded for 90 min.
The following cystometric parameters were analyzed (see FIG. 10): • Amplitude of micturition (AM, mmHg). • Threshold pressure (ThP, mmHg). • Intercontraction interval (ICI, sec): time between basal pressure and ThP. ICI was not presented due to different infusion rate in sham and SCI rats. ICI was only analyzed to calculate the bladder capacity. • Bladder capacity (BC, mL) BC=ICI×infusion rate. • Amplitude of non voiding contractions (NVC, mmHg) • Frequency of NVC (number per min).
For each cystometric parameter and for each time period, the comparisons were performed as described below: • Basal values of each cystometric parameter of Sham/Vehicle and SCI/Vehicle groups were compared using unpaired student t test • Basal values of each cystometric parameter of all SCI groups were compared using one-way ANOVA or Kruskal-Wallis test • The 3 interval periods of 30 min post treatment of each cystometric parameter within the same group were compared to corresponding basal values using one-way ANOVA with repeated measures or Friedman test followed by Dunnett's or Dunn's post-test, respectively. • The 3 interval periods of 30 min post treatment of each cystometric parameter were compared between all SCI groups using one-way ANOVA or Kruskal Wallis test followed by Holm-Sidak's or Dunn's post-test versus Vehicle, respectively.

conscious BOO rats [3] = details: Gillespy et al., 2012; cited from earlier work
conscious BOO rats [4] = assay: Cystometric parameters in conscious bladder outlet obstruction (BOO) rats; assay type: in vivo, rat; details: i.g.; for BC, effect versus basal: Cpd (IA) 30 mg/kg, mirabegron 10 mg/kg
Method: Test substance effects were compared to those of the reference substance, mirabegron, marketed for overactive bladder.
• At W-6, a partial ligature of the urethra was performed. • At W-6, during 3 consecutive days, rats were treated daily with gentamycin and Ketofen® The bladder was emptied manually once a day. • From W-6 to W-1 animals were monitored and weighed once per week. • At W0 (D-2), catheters were implanted under isoflurane anesthesia. • At D0, cystometry was performed.
Appropriate amount of Cpd (IA) was weighed and dissolved in vehicle to obtain the dosing solution with the target concentration of 3 mg/mL (as free base). […]
[…] Mirabegron (from Kemprotec) was prepared fresh on the day of administration at a final concentration of 2 mg/mL (free base form). Appropriate mass of mirabegron was weighed and dissolved in vehicle (0.5% MC) at room temperature.

[5] = test system: rhythmic bladder contractions (RBC) in anesthetized female rats; assay: Isovolumetric model: rhythmic bladder contractions (RBC), cystometry; assay type: in vivo, rat; details: for RBC amplitude, basal / RBC frequency, basal: basal period −30/0 min before i.v. administration, group mean
Excerpt: In rats, under isovolumetric condition, bladder distension induced rhythmic bladder contractions (RBC) (Aizawa et al, (2015) Effects of L-arginine, mirabegron, and oxybutynin on the primary bladder afferent nerve activities synchronized with reflexic, rhythmic bladder contractions in the rat. Neurourology & Urodynamics 34:368-374). This isovolumetric model allows the evaluation of compound on RBC. It is a closed system where the bladder is slowly infused through a urethral catheter with saline until the occurrence of spontaneous rhythmic bladder contractions.
Test substance effects were compared to that of the reference substance, tolterodine, an […], marketed for overactive bladder in humans.
Protocol: • Animals were anesthetized with urethane (i.p.). • Ureters were ligated and sectioned close to the kidneys. • Intravesical catheter was inserted into the bladder though the urinary meatus. • Urinary meatus was closed. • A catheter was inserted into the jugular vein for compound administration. • Bladder was filled with saline until the occurrence of RBC. • After 30 min basal period, compounds were administered as described below. • The effect of the test substances was followed by 1-hour post administration.
Rats were anesthetized with an intraperitoneal administration of urethane (1 g/kg). The ureters were ligated and sectioned close to the kidneys. A catheter (0.30 and 0.70 mm of inner and outer diameters, respectively) was inserted through the urinary meatus into the bladder before urethral ligature. Another catheter (0.58 and 0.96 mm of inner and outer diameters, respectively) was inserted into the jugular vein for intravenous (i.v.) administration.
For all group, animals were treated by i.v. route (1 mL/kg) (slow bolus) after the basal period.
The vesical catheter was connected via a T-tube to a strain gauge (to measure intra-vesical pressure) and to a syringe. Isovolumetric bladder contractions were induced by stepwise injections of physiological saline at room temperature (100 μL every 5 min) until stable RBC occurred. Vesical pressure was continuously recorded. After a 30 min control period (basal values), substances or vehicle were i.v. administered. The effects of substances were followed during 60 min after administration. At the end of the experiments, animals were sacrificed by cervical dislocation.
The following parameters were analyzed: • Amplitude of RBC (mmHg) • Frequency of RBC (number/30 min) • Time of inhibition (sec)
The % variation from the basal values were calculated for RBC frequency and amplitude.
Statistical analysis and graphs were performed using GraphPad Prism® (GraphPad Software Inc., La Jolla, CA, USA). A p value <0.05 was accepted for statistical significance.

conscious SCI rats [6] = details: Beauval et al., 2015; cited from earlier work
[7] = 0/60 min after i.v., Cpd (IA) 3 mg/kg (n=8), tolterodine 1 mg/kg, mean
[8] = 0/60 min after i.v., Cpd (IA) 3 mg/kg, tolterodine 1 mg/kg, mean
[9] = 0/60 min after i.v., Cpd (IA) 3 mg/kg, tolterodine 1 mg/kg, mean, listed as Tolterodine
[10] = i.v., Cpd (IA) 3 mg/kg, tolterodine 1 mg/kg, vs basal
[11] = i.v., Cpd (IA) 3 mg/kg, tolterodine 1 mg/kg, vs vehicle

O=C(O)c1nc2ccccc2n([C@H]2C[C@H]3CCC[C@@H](C2)N3C2CC3CCCC(C3)C2)c1=O (single isomer, unassigned) [compound of formula (I′)]
route of excretion [1]: primarily excreted from the urine largely unchanged

O=C(O)c1nc2ccccc2n(C2CC3CCCC(C2)N3C2CC3CCCC(C3)C2)c1=O (stereo not shown) [compound of formula (I)]
route of excretion [1]: primarily excreted from the urine largely unchanged

Nc1nc(CC(=O)Nc2ccc(CCNC[C@H](O)c3ccccc3)cc2)cs1 [mirabegron, reference compound]
AM (amplitude of micturition), effect versus basal (conscious SCI rats [2]): did not significantly modify | AM (mmHg and % variation), effect versus vehicle (conscious SCI rats [2]): not significantly modified | BC expressed in % variation from basal, effect versus vehicle (conscious SCI rats [2]): not significantly modified | BC expressed in mL, effect versus vehicle (conscious SCI rats [2]): no significant difference | NVC amplitude (mmHg or % variation), effect versus vehicle (conscious SCI rats [2]): not significantly modified | NVC amplitude, effect versus basal (conscious SCI rats [2]): did not significantly modified | NVC frequency (NVC/min and % variation), effect versus vehicle (conscious SCI rats [2]): not significantly modified | NVC frequency, effect versus basal (conscious SCI rats [2]): significantly decreased NVC frequency for the 30-60 and 60-90 min interval periods; also recorded: slightly but significantly decreased | ThP (mmHg and % variation), effect versus vehicle (conscious SCI rats [2]): not significantly modified | ThP (threshold pressure), effect versus basal (conscious SCI rats [2]): significantly decreased ThP for the 60-90 min post-administration interval period | BC (bladder capacity), effect versus basal (conscious SCI rats [2]; 30-min interval periods to 90 min): did not significantly modify | frequency of NVC (conscious BOO rats [3]): reduces | AM (mmHg or % variation), effect versus vehicle (conscious BOO rats [4]; 0-90 min entire period): not significantly modified | AM, effect versus basal (conscious BOO rats [4]; 0-90 min entire period): did not significantly modify | BC expressed in % variation from basal, effect versus vehicle (conscious BOO rats [4]; 0-90 min entire period): not significantly modified | BC expressed in mL, effect versus vehicle (conscious BOO rats [4]; 0-90 min entire period): no significant difference | NVC amplitude expressed in % variation from basal, effect versus vehicle (conscious BOO rats [4]; 0-90 min entire period): significantly reduced | NVC amplitude expressed in mmHg, effect versus vehicle (conscious BOO rats [4]; 0-90 min entire period): not significantly modified | NVC amplitude, effect versus basal (conscious BOO rats [4]; 0-90 min entire period): did not modify | NVC frequency (NVC/min or % variation), effect versus vehicle (conscious BOO rats [4]; 0-90 min entire period): not significantly modified | NVC frequency, effect versus basal (conscious BOO rats [4]; 0-90 min entire period): significantly decreased | ThP expressed in % variation from basal, effect versus vehicle (conscious BOO rats [4]; 0-90 min entire period): no significant effect | ThP expressed in mmHg, effect versus vehicle (conscious BOO rats [4]; 0-90 min entire period): not significantly modified | ThP, effect versus basal (conscious BOO rats [4]; 0-90 min entire period): did not modify | AM (mmHg or % variation), effect versus vehicle (conscious BOO rats [4]; 60-90 min interval period): no effect | AM, effect versus basal (conscious BOO rats [4]; 60-90 min interval period): did not significantly modify | BC expressed in % variation from basal, effect versus vehicle (conscious BOO rats [4]; 60-90 min interval period): no significant difference | BC expressed in mL, effect versus vehicle (conscious BOO rats [4]; 60-90 min interval period): no significant difference | NVC amplitude expressed in % variation from basal, effect versus vehicle (conscious BOO rats [4]; 60-90 min interval period): significantly decreased | NVC amplitude expressed in mmHg, effect versus vehicle (conscious BOO rats [4]; 60-90 min interval period): not significantly modified | NVC amplitude, effect versus basal (conscious BOO rats [4]; 60-90 min interval period): significantly reduced | NVC frequency (NVC/min or % variation), effect versus vehicle (conscious BOO rats [4]; 60-90 min interval period): unaffected | NVC frequency, effect versus basal (conscious BOO rats [4]; 60-90 min interval period): significantly decreased | ThP expressed in % variation from basal, effect versus vehicle (conscious BOO rats [4]; 60-90 min interval period): significantly decreased | ThP expressed in mmHg, effect versus vehicle (conscious BOO rats [4]; 60-90 min interval period): not significantly modified | ThP, effect versus basal (conscious BOO rats [4]; 60-90 min interval period): without effect | BC, effect versus basal (conscious BOO rats [4]; 0-90 min entire period): did not significantly modify | BC, effect versus basal (conscious BOO rats [4]; 60-90 min interval period): significantly increased

Cc1ccc(O)c([C@H](CCN(C(C)C)C(C)C)c2ccccc2)c1 [tolterodine]
RBC amplitude, % variation from basal [5, 7]: −30.83±5.24% | RBC amplitude, treated period [5, 7]: 18.56 mmHg | RBC amplitude, % variation from basal ([5]; 0/60 min after i.v., Cpd (IA) 3 mg/kg (n=8), tolterodine 1 mg/kg, mean, listed as Tolterodine): −30.83% | RBC frequency, % variation from basal [5, 8]: −33.93±10.93% | RBC frequency, treated period [5, 8]: 15.30±2.72 nb of RBC/30 min | RBC frequency, % variation from basal [5, 9]: −33.93% | RBC frequency, treated period [5, 9]: 15.30 nb of RBC/30 min | Inhibition time ([5]; after i.v., Cpd (IA) 3 mg/kg, tolterodine 1 mg/kg, mean): 87.04 s | RBC amplitude, basal [5]: 27.22±2.03 mmHg | RBC frequency, basal [5]: 23.00±0.87 nb of RBC/30 min | RBC amplitude, basal ([5]; listed as Tolterodine): 27.22 mmHg | RBC frequency, basal ([5]; listed as Tolterodine): 23.00 nb of RBC/30 min | bladder afferent activity ([5]; conclusion of Example 1): no effect | bladder efferent activity ([5]; conclusion of Example 1): effectively inhibited | RBC amplitude, effect versus basal [5, 10]: significantly reduced | RBC frequency, effect versus basal [5, 10]: significantly decreased | RBC amplitude (% variation), effect versus vehicle [5, 11]: significantly reduced | RBC frequency (% variation), effect versus vehicle [5, 11]: did not significantly modify | time of inhibition, effect versus vehicle [5, 11]: no significant difference

C[C@H](Cc1ccc2c(c1)OC(C(=O)[O-])(C(=O)[O-])O2)NC[C@H](O)c1cccc(Cl)c1.[Na+].[Na+] [CL-316,243]
bladder capacity (conscious SCI rats [6]): significantly increase | frequency of NVC (conscious SCI rats [6]): reduce
